“And” between values parts separate entries of the source, which are not always exact repeats. Equal entries are not always repeated.
What was measured:
K2P4.1 (TRAAK) = target: T1, K2P4.1 (TRAAK) (Mus musculus, UniProt O88454); assay: Two-electrode voltage clamp, Xenopus oocytes expressing K2P4.1 (TRAAK); type: cell-based, Murine
T1 construct: expressed in transfected cells; host or cells: Xenopus oocytes
T1 sequence (O88454 1-398): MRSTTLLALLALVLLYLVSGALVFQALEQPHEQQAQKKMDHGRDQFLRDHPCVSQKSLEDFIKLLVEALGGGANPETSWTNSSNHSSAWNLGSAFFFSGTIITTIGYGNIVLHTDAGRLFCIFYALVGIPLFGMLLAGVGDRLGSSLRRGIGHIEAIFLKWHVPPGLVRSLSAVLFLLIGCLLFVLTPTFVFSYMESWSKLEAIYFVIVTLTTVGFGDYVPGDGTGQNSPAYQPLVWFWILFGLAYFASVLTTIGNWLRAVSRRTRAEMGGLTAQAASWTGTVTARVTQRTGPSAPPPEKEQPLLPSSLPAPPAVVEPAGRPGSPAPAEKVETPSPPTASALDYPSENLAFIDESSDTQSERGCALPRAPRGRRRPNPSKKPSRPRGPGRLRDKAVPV
Description: (§1) FIG. 7 ML67-33 is a selective activator of heat- and mechanosensitive K2P channels. a-f, Exemplar I-V curves showing the effect of ML67-33 on a, K2P10.1 (TREK-2), b, K2P4.1 (TRAAK), c, K2P3.1 (TASK-1), d, K2P9.1 (TASK-3), e, K2P5.1 (TASK-2), and f, K2P18.1 (TRESK) measured in Xenopus oocytes in 2 mM [K^+]o pH 7.4. Currents were elicited by a voltage ramp from −150 to 50 mV, from a holding potential of −80 mV. g, Quantification of the effect of ML67-33 on the indicated channels. Data (mean±s.e., n≧6, N≧2) was normalized to basal channel activity and fitted to the Hill equation. […] Error bars indicate s.e., n≧6, N≧2.
(§2) Murine K2P channels were cloned into pGEMHE/pMO {Bagriantsev, 2011}, IRES-GFP (Invitrogen), or pYES2-MET25 (high copy 2μ, URA3) {Minor, 1999} for expression in oocytes, HEK-293T cells, and yeast, respectively, using standard molecular biology procedures, and verified by DNA sequencing.
(§3) Two-electrode voltage clamp recordings were performed from defolliculated stage V-VI Xenopus oocytes 24-48 hours after injection with 0.015-6.0 ng cRNA, using microelectrodes (0.3-3.0 MΩ) filled with 3M KCl. Data was acquired using the GeneClamp 500B (MDS Analytical Technologies) amplifier controlled by the pClamp software (Molecular Devices), and digitized at 1 kHz using Digidata 1332A (MDS Analytical Technologies). […]

K2P18.1 (TRESK) = target: T2, K2P18.1 (TRESK) (Mus musculus, UniProt Q6VV64); assay: Two-electrode voltage clamp, Xenopus oocytes expressing K2P18.1 (TRESK); type: cell-based, Murine
T2 construct: expressed in transfected cells; host or cells: Xenopus oocytes
T2 sequence (Q6VV64 1-394): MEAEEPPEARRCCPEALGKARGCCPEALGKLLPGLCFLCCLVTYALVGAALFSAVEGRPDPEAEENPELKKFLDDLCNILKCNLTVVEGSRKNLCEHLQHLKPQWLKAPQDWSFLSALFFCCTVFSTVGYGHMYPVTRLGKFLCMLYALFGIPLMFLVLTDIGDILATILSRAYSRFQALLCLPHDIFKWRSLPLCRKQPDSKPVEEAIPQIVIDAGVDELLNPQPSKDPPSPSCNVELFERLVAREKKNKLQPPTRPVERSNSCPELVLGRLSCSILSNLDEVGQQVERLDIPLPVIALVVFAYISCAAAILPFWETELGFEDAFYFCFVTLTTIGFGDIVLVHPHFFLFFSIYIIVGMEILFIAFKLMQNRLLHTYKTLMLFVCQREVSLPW
Description: as §1, §2, §3

Kv7.2 (KCNQ2) = target: T3, Kv7.2 (KCNQ2) (Homo sapiens, UniProt O43526); assay: Two-electrode voltage clamp, Xenopus oocytes expressing Kv7.2 (KCNQ2); type: cell-based; details: ML67-33 at 100 μM; ML67 concentration not stated
T3 construct: expressed in transfected cells; host or cells: Xenopus oocytes
Description: FIG. 12 Exemplar I-V curves showing the effect of 100 μM ML67-33 Kv7.2 (KCNQ2) measured by two-electrode voltage clamp in Xenopus oocytes in 2 mM [K^+]o pH 7.4. Currents were elicited by a step protocol from −120 to 60 mV, in 20 mV increments, from a holding potential of −80 mV.
Two-electrode voltage clamp recordings were performed from defolliculated stage V-VI Xenopus oocytes 24-48 hours after injection with 0.015-6.0 ng cRNA, using microelectrodes (0.3-3.0 MΩ) filled with 3M KCl. Data was acquired using the GeneClamp 500B (MDS Analytical Technologies) amplifier controlled by the pClamp software (Molecular Devices), and digitized at 1 kHz using Digidata 1332A (MDS Analytical Technologies). Recording solutions (mM): 2K (96 NaCl, 2 KCl, 1.8 CaCl2, 2 MgCl2), 90K (90 KCl, 8 NaCl, 1.8 CaCl2, 2 MgCl2), were buffered 5 mM HEPES pH 7.4. For K2P recordings, currents we elicited by a 1 second long ramp from −150 to +50 mV from a holding potential of −80 mV (2K), or −100 to +50 mV from a holding potential of 0 mV (90K). For KCNQ2 recordings, currents were elicited by a step protocol from −120 to 60 mV, in 20 mV increments, from a holding potential of −80 mV. Patch-clamp recordings from HEK-293T cells were performed using microelectrodes (2-3 MΩ) filled with 1M KCl. Data was acquired using the Axopatch 200B amplifier controlled by pClamp software, and digitized at 1 kHz using Digidata 1332A. Recording solutions (mM): intracellular (145 KCl, 5 EGTA, 3 MgCl2,) extracellular (150 NaCl, 5 KCl, 3 MgCl2, 1 CaCl2) were buffered with 5 mM HEPES pH 7.2 and 7.4, respectively. Currents were elicited by a 1 second long ramp from −150 to +50 mV from a holding potential of −80 mV. Data were fitted with a modified Hill's equation: I=Imin+(Imax−Imin)/(1+10^((Log EC50−Log [C])*H)), where Imax and Imin are maximal and minimal current values, respectively, EC50 is a half-maximal effective concentration of the compound, and H is the Hill coefficient.

Solubility (remarks) = type: physicochemical
[1] = at 100 μM (FIG. 7 legend), ** in Table 1

Q: What does the source list for CC1(C)c2cc(Cl)ccc2N(CCc2nnn[nH]2)c2ccc(Cl)cc21 [ML67-33, 2,7-dichloro-9,9-dimethyl-10-[2-(1H-tetrazol-5-yl)ethyl]acridine]?
A: EC50 (K2P4.1 (TRAAK); Xenopus oocytes, 2 mM [K+]o pH 7.4): 27.3 ± 1.2 µM; Emax (fold) (K2P4.1 (TRAAK); [1]): 14.7±1.1 fold and 14.7±1.12 fold; functional effect (in words) (K2P18.1 (TRESK); applied at 100 μM): little or no functional effects; Emax (fold) (K2P18.1 (TRESK); [1]): 0.9±0.1 fold; effect on Kv7.2 (KCNQ2) (in words) (Kv7.2 (KCNQ2)): no effect; solubility (in words) (Solubility (remarks)): favorable solubility properties

— patent publication US9862684B2, “Modulation of K2P channels” (The Regents of the University of California, priority 2013, dated 2018)
